Assay: xn = mol fraction of the nth substance listed
Details: 101 kPa, Liquid

CCCCCCCCCO [nonan-1-ol] + CCCCCCCCO
Details | mass density [kg/m3] | viscosity [mPa·s]
283.15 K, x2 = 0 | 835 | 17.44
283.15 K, x2 = 0.1001 | 834.6 | 16.99
283.15 K, x2 = 0.1998 | 834.4 | 16.57
283.15 K, x2 = 0.2999 | 834.1 | 16.21
283.15 K, x2 = 0.4003 | 833.8 | 15.79
283.15 K, x2 = 0.5001 | 833.5 | 15.41
283.15 K, x2 = 0.6001 | 833.2 | 15.01
283.15 K, x2 = 0.7 | 832.9 | 14.55
283.15 K, x2 = 0.8001 | 832.7 | 14.21
283.15 K, x2 = 0.9001 | 832.3 | 13.9
288.15 K, x2 = 0 | 831.5 | 14.27
288.15 K, x2 = 0.1001 | 831.3 | 13.92
288.15 K, x2 = 0.1998 | 831 | 13.61
288.15 K, x2 = 0.2999 | 830.7 | 13.2
288.15 K, x2 = 0.4003 | 830.4 | 12.83
288.15 K, x2 = 0.5001 | 830.1 | 12.5
288.15 K, x2 = 0.6001 | 829.8 | 12.26
288.15 K, x2 = 0.7 | 829.5 | 11.97
288.15 K, x2 = 0.8001 | 829.3 | 11.59
288.15 K, x2 = 0.9001 | 828.9 | 11.33
293.15 K, x2 = 0 | 828.1 | 11.63
293.15 K, x2 = 0.1001 | 827.8 | 11.38
293.15 K, x2 = 0.1998 | 827.6 | 11.12
293.15 K, x2 = 0.2999 | 827.3 | 10.79
293.15 K, x2 = 0.4003 | 827 | 10.55
293.15 K, x2 = 0.5001 | 826.7 | 10.26
293.15 K, x2 = 0.6001 | 826.4 | 10.04
293.15 K, x2 = 0.7 | 826.1 | 9.838
293.15 K, x2 = 0.8001 | 825.8 | 9.525
293.15 K, x2 = 0.9001 | 825.5 | 9.303
298.15 K, x2 = 0 | 824.7 | 9.519
298.15 K, x2 = 0.1001 | 824.4 | 9.353
298.15 K, x2 = 0.1998 | 824.1 | 9.135
298.15 K, x2 = 0.2997 | 823.8 | 8.957
298.15 K, x2 = 0.4003 | 823.5 | 8.749
298.15 K, x2 = 0.4996 | 823.2 | 8.582
298.15 K, x2 = 0.6001 | 822.9 | 8.43
298.15 K, x2 = 0.7 | 822.6 | 8.238
298.15 K, x2 = 0.8001 | 822.4 | 7.976
298.15 K, x2 = 0.9001 | 822 | 7.786
303.15 K, x2 = 0 | 821.3 | 7.806
303.15 K, x2 = 0.1001 | 821 | 7.679
303.15 K, x2 = 0.1998 | 820.7 | 7.537
303.15 K, x2 = 0.2997 | 820.4 | 7.35
303.15 K, x2 = 0.4003 | 820.1 | 7.171
303.15 K, x2 = 0.5001 | 819.8 | 7.057
303.15 K, x2 = 0.6001 | 819.5 | 6.936
303.15 K, x2 = 0.7 | 819.2 | 6.779
303.15 K, x2 = 0.8001 | 818.9 | 6.634
303.15 K, x2 = 0.9001 | 818.6 | 6.494
308.15 K, x2 = 0 | 817.8 | 6.604
308.15 K, x2 = 0.1001 | 817.5 | 6.479
308.15 K, x2 = 0.1998 | 817.2 | 6.356
308.15 K, x2 = 0.2999 | 816.9 | 6.212
308.15 K, x2 = 0.4003 | 816.6 | 6.055
308.15 K, x2 = 0.5001 | 816.3 | 5.963
308.15 K, x2 = 0.6001 | 816 | 5.862
308.15 K, x2 = 0.7 | 815.7 | 5.743
308.15 K, x2 = 0.8001 | 815.4 | 5.625
308.15 K, x2 = 0.9001 | 815 | 5.51
313.15 K, x2 = 0 | 814.3 | 5.668
313.15 K, x2 = 0.1001 | 814 | 5.579
313.15 K, x2 = 0.1998 | 813.7 | 5.458
313.15 K, x2 = 0.2999 | 813.4 | 5.377
313.15 K, x2 = 0.4003 | 813.1 | 5.258
313.15 K, x2 = 0.5001 | 812.8 | 5.181
313.15 K, x2 = 0.6001 | 812.5 | 5.068
313.15 K, x2 = 0.7 | 812.2 | 4.957
313.15 K, x2 = 0.8001 | 812 | 4.872
313.15 K, x2 = 0.9001 | 811.6 | 4.773
